Columns and labels:
[1] = In vitro radiochemical stability; format: physicochemical; conditions: all selected media, 40°C, up to 90 min
Procedure: In vitro radiochemical stabilities of [^18F]1 and [^18F]2 were investigated in 0.9% NaCl solution, Dulbecco’s phosphate buffer, 0.01 M Tris–HCl (pH 7.4 at 21°C), and EtOH at 40°C for 90 min. Samples were taken at 15, 30, 60, and 90 min after incubation and analyzed by radio-TLC and radio-HPLC.

[2] = Ex vivo biodistribution (organ distribution) in mice; conditions: i.v. 300 to 400 kBq, female CD1 mice
Procedure: (§1) Female CD1 mice (10 to 12 weeks old, 20 to 25 g) received an injection of 300 to 400 kBq of [^18F]1 or [^18F]2 with specific activities of >450 GBq/μmol in 200 μL of 0.9% NaCl/10% EtOH into the tail vein. The animals were anesthetized (CO2/O2 mixture) for blood and urine sampling and euthanized by luxation of the cervical spine at 5, 30, and 60 min after injection (p.i.) (n = 2 to 5 per time). The organs of interest were removed and weighed, and the activities were measured by γ counting using a calibrated γ counter Wallac Wizard 1470 (Perkin Elmer Inc., Waltham, MA, USA). The percentage of injected dose per gram of wet tissue (% ID/g wet weight) was calculated.

[3] = biological target: CB2R (Mus musculus, UniProt P47936); set-up: species or system female CD1 mice; conditions: female, CD1, mouse, in vivo
Procedure: as §1
(3 mg/kg i.p. in 0.9% saline, 10 min before the injection of the radiotracer) at 60 min p.i. (n = 2 to 5). The unpaired two-tailed t test was used to compare the results between the groups. We considered differences to be significant at a p value <0.05.

[4] = Ex vivo metabolite studies (radio-HPLC of plasma and brain extracts); format: in vivo, CD1 mice; conditions: mice
Procedure: [^18F]1 and [^18F]2 (100 to 150 MBq, 250 to 450 GBq/μmol in 150 μL NaCl 0.9%/10% EtOH) were injected via the tail vein in CD1 male mice (10 to 12 weeks old, 20 to 25 g). Blood and urine samples were obtained at 30 and 60 min p.i. (n = 3 per time point). Twofold extractions of plasma and brain samples (n = 3) were performed using ice-cold MeCN according to the standard protocol established in our group (see [47, 48]). Briefly, plasma samples were obtained by centrifugation of the blood at 4,000×g at 4°C for 10 min, and brain samples were homogenized in ice-cold 50 mM Tris–HCl (pH = 7.4). The samples were vortexed, incubated on ice, and centrifuged at 10,000×g for 3 min. Supernatants were collected, and the precipitates were re-dissolved in ice-cold MeCN for the second extraction. The supernatants from the two extractions were combined, concentrated under a gentle argon stream at 65°C, and analyzed by radio-TLC and gradient analytical HPLC (see ‘Radiochemistry’ section). Aliquots from each extraction supernatant and the precipitates were also taken and quantified by γ counting (Wallac Wizard 1470, Perkin Elmer Inc., Waltham, MA, USA) along with the respective aliquots of intact plasma samples and brain homogenates. A moderate recovery of radioactivity was obtained from plasma samples and brain homogenates (60% to 70%). Radiometabolites of [^18F]17 in the plasma, spleen, and brain were assessed at 30 and 60 min p.i.

Chain of CB2R (P47936 whole entry): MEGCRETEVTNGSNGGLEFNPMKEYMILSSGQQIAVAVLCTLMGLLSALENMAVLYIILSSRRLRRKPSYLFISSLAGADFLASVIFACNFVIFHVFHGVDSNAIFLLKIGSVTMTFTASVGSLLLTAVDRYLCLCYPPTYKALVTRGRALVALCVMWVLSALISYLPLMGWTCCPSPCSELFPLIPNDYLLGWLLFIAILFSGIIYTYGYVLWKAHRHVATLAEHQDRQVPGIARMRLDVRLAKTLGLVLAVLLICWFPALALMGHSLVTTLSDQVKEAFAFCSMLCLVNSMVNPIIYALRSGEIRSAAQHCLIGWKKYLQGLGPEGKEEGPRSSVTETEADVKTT

In the case of `CCn1c2ccccc2c2cc(NC(=O)CCc3nc(-c4ccc([18F])cc4Br)no3)ccc21` [[^18F]2], the intact tracer [1] is reported as no less than 98%, the “Radioactivity uptake, Adrenals, Control 5 min” value [2] is reported as 7.67 ± 2.18 % ID/g and the “Radioactivity uptake, Adrenals, Control 30 min” value [2] is reported as 5.38 ± 0.61 % ID/g. For the same compound, the “Radioactivity uptake, Adrenals, Control 60 min” value [2] was 2.44 ± 0.72 % ID/g, the “Radioactivity uptake, Bladder, Control 5 min” value [2] was 1.01 ± 0.29 % ID/g and the “Radioactivity uptake, Bladder, Control 30 min” value [2] was 2.02 ± 0.39 % ID/g. For the same compound, the “Radioactivity uptake, Bladder, Control 60 min” value [2] was 1.45 ± 0.57 % ID/g, the “Radioactivity uptake, Blood, Control 5 min” value [2] was 2.29 ± 0.48 % ID/g and the “Radioactivity uptake, Blood, Control 30 min” value [2] was 3.42 ± 0.39 % ID/g. For the same compound, the “Radioactivity uptake, Blood, Control 60 min” value [2] was 2.50 ± 0.42 % ID/g, the “Radioactivity uptake, Brain, Control 5 min” value [2] was 0.62 ± 0.22 % ID/g and the “Radioactivity uptake, Brain, Control 30 min” value [2] was 0.86 ± 0.34 % ID/g. The “Radioactivity uptake, Brain, Control 60 min” value [2] was 0.26 ± 0.07 % ID/g, the “Radioactivity uptake, Femur, Control 5 min” value [2] was 1.63 ± 0.93 % ID/g and the “Radioactivity uptake, Femur, Control 30 min” value [2] was 1.10 ± 0.03 % ID/g. The “Radioactivity uptake, Femur, Control 60 min” value [2] was 0.58 ± 0.11 % ID/g, the “Radioactivity uptake, Gonads, Control 5 min” value [2] was 1.14 ± 0.32 % ID/g and the “Radioactivity uptake, Gonads, Control 30 min” value [2] was 2.08 ± 0.03 % ID/g. For the same compound, the “Radioactivity uptake, Gonads, Control 60 min” value [2] was 2.29 ± 0.57 % ID/g, the “Radioactivity uptake, Heart, Control 5 min” value [2] was 3.42 ± 0.57 % ID/g and the “Radioactivity uptake, Heart, Control 30 min” value [2] was 2.32 ± 0.24 % ID/g. The “Radioactivity uptake, Heart, Control 60 min” value [2] was 1.45 ± 0.20 % ID/g, the “Radioactivity uptake, Kidney, Control 5 min” value [2] was 5.86 ± 0.96 % ID/g and the “Radioactivity uptake, Kidney, Control 30 min” value [2] was 5.90 ± 0.15 % ID/g. For the same compound, the “Radioactivity uptake, Kidney, Control 60 min” value [2] was 3.96 ± 1.25 % ID/g, the “Radioactivity uptake, Large intestine, Control 5 min” value [2] was 0.46 ± 0.06 % ID/g and the “Radioactivity uptake, Large intestine, Control 30 min” value [2] was 1.25 ± 0.30 % ID/g. For the same compound, the “Radioactivity uptake, Large intestine, Control 60 min” value [2] was 1.86 ± 0.36 % ID/g, the “Radioactivity uptake, Liver, Control 5 min” value [2] was 31.31 ± 9.91 % ID/g and the “Radioactivity uptake, Liver, Control 30 min” value [2] was 8.84 ± 0.83 % ID/g. For the same compound, the “Radioactivity uptake, Liver, Control 60 min” value [2] was 6.27 ± 0.68 % ID/g, the “Radioactivity uptake, Lung, Control 5 min” value [2] was 4.62 ± 0.21 % ID/g and the “Radioactivity uptake, Lung, Control 30 min” value [2] was 3.36 ± 0.02 % ID/g. For the same compound, the “Radioactivity uptake, Lung, Control 60 min” value [2] was 2.52 ± 0.60 % ID/g, the “Radioactivity uptake, Muscle, Control 5 min” value [2] was 1.00 ± 0.30 % ID/g and the “Radioactivity uptake, Muscle, Control 30 min” value [2] was 0.92 ± 0.15 % ID/g. The “Radioactivity uptake, Muscle, Control 60 min” value [2] was 0.70 ± 0.27 % ID/g, the “Radioactivity uptake, Pancreas, Control 5 min” value [2] was 2.04 ± 0.59 % ID/g and the “Radioactivity uptake, Pancreas, Control 30 min” value [2] was 1.71 ± 0.15 % ID/g. For the same compound, the “Radioactivity uptake, Pancreas, Control 60 min” value [2] was 0.82 ± 0.21 % ID/g, the “Radioactivity uptake, Plasma, Control 5 min” value [2] was 3.87 ± 0.90 % ID/g and the “Radioactivity uptake, Plasma, Control 30 min” value [2] was 6.82 ± 1.19 % ID/g. The “Radioactivity uptake, Plasma, Control 60 min” value [2] was 5.22 ± 0.73 % ID/g, the “Radioactivity uptake, Small intestine, Control 5 min” value [2] was 3.86 ± 2.64 % ID/g and the “Radioactivity uptake, Small intestine, Control 30 min” value [2] was 20.78 ± 3.28 % ID/g. The “Radioactivity uptake, Small intestine, Control 60 min” value [2] was 27.31 ± 2.44 % ID/g, the “Radioactivity uptake, Spleen, Control 5 min” value [2] was 10.42 ± 7.67 % ID/g and the “Radioactivity uptake, Spleen, Control 30 min” value [2] was 1.34 ± 0.10 % ID/g. For the same compound, the “Radioactivity uptake, Spleen, Control 60 min” value [2] was 0.68 ± 0.11 % ID/g, the “Radioactivity uptake, Stomach, Control 5 min” value [2] was 1.57 ± 1.18 % ID/g and the “Radioactivity uptake, Stomach, Control 30 min” value [2] was 2.09 ± 0.81 % ID/g. For the same compound, the “Radioactivity uptake, Stomach, Control 60 min” value [2] was 2.21 ± 0.43 % ID/g, the “Radioactivity uptake, Thymus, Control 5 min” value [2] was 2.30 ± 1.06 % ID/g and the “Radioactivity uptake, Thymus, Control 30 min” value [2] was 1.96 ± 0.22 % ID/g. For the same compound, the “Radioactivity uptake, Thymus, Control 60 min” value [2] was 1.04 ± 0.08 % ID/g, the “Radioactivity uptake, Adrenals, Blocking 60 min” value ([3]; 3 mg/kg, 1 h) was 3.34 ± 0.15 % ID/g and the “Radioactivity uptake, Bladder, Blocking 60 min” value ([3]; 3 mg/kg, 1 h) was 1.77 ± 0.16 % ID/g. The “Radioactivity uptake, Blood, Blocking 60 min” value ([3]; 3 mg/kg, 1 h) was 3.40 ± 0.21 % ID/g, the “Radioactivity uptake, Brain, Blocking 60 min” value ([3]; 3 mg/kg, 1 h) was 0.28 ± 0.03 % ID/g and the “Radioactivity uptake, Femur, Blocking 60 min” value ([3]; 3 mg/kg, 1 h) was 0.61 ± 0.09 % ID/g. For the same compound, the “Radioactivity uptake, Gonads, Blocking 60 min” value ([3]; 3 mg/kg, 1 h) was 1.97 ± 0.39 % ID/g, the “Radioactivity uptake, Heart, Blocking 60 min” value ([3]; 3 mg/kg, 1 h) was 1.53 ± 0.13 % ID/g and the “Radioactivity uptake, Kidney, Blocking 60 min” value ([3]; 3 mg/kg, 1 h) was 4.91 ± 1.51 % ID/g. For the same compound, the “Radioactivity uptake, Large intestine, Blocking 60 min” value ([3]; 3 mg/kg, 1 h) was 1.78 ± 0.23 % ID/g, the “Radioactivity uptake, Liver, Blocking 60 min” value ([3]; 3 mg/kg, 1 h) was 10.51 ± 1.10 % ID/g and the “Radioactivity uptake, Lung, Blocking 60 min” value ([3]; 3 mg/kg, 1 h) was 2.31 ± 0.19 % ID/g. The “Radioactivity uptake, Muscle, Blocking 60 min” value ([3]; 3 mg/kg, 1 h) was 0.70 ± 0.06 % ID/g, the “Radioactivity uptake, Pancreas, Blocking 60 min” value ([3]; 3 mg/kg, 1 h) was 1.02 ± 0.11 % ID/g and the “Radioactivity uptake, Plasma, Blocking 60 min” value ([3]; 3 mg/kg, 1 h) was 5.78 ± 0.07 % ID/g. The “Radioactivity uptake, Small intestine, Blocking 60 min” value ([3]; 3 mg/kg, 1 h) was 29.64 ± 5.10 % ID/g, the “Radioactivity uptake, Spleen, Blocking 60 min” value ([3]; 3 mg/kg, 1 h) was 0.74 ± 0.10 % ID/g and the “Radioactivity uptake, Stomach, Blocking 60 min” value ([3]; 3 mg/kg, 1 h) was 3.24 ± 2.10 % ID/g. The “Radioactivity uptake, Thymus, Blocking 60 min” value ([3]; 3 mg/kg, 1 h) was 1.77 ± 0.14 % ID/g, the “% control, Adrenals” value ([3]; 60 min) was 137 % control and the “% control, Bladder” value ([3]; 60 min) was 122 % control. The “% control, Blood” value ([3]; 60 min) was 136 % control, the “% control, Brain” value ([3]; 60 min) was 108 % control and the “% control, Femur” value ([3]; 60 min) was 106 % control. The “% control, Gonads” value ([3]; 60 min) was 86 % control, the “% control, Heart” value ([3]; 60 min) was 106 % control and the “% control, Kidney” value ([3]; 60 min) was 124 % control. For the same compound, the “% control, L. intestine” value ([3]; 60 min) was 96 % control, the “% control, Liver” value ([3]; 60 min) was 168 % control and the “% control, Lung” value ([3]; 60 min) was 92 % control. For the same compound, the “% control, Muscle” value ([3]; 60 min) was 99 % control, the “% control, Pancreas” value ([3]; 60 min) was 125 % control and the “% control, Plasma” value ([3]; 60 min) was 111 % control. The “% control, S. intestine” value ([3]; 60 min) was 109 % control, the “% control, Spleen” value ([3]; 60 min) was 110 % control and the “% control, Stomach” value ([3]; 60 min) was 146 % control. The “% control, Thymus” value ([3]; 60 min) was 171 % control, the “Percentage of total activity in brain samples, 30 min p.i.” value ([4]; brain homogenate extract, 30 min p.i. of [18F]1 or [18F]2, radio-HPLC) was 88% and the “Percentage of total activity in brain samples, 60 min p.i.” value ([4]; brain homogenate extract, 60 min p.i. of [18F]1 or [18F]2, radio-HPLC) was 43%. For the same compound, the “Relative percentage of intact tracer and radiometabolites, Plasma 30 min p.i.” value ([4]; plasma, 30 min p.i. of [18F]1 or [18F]2, radio-HPLC) was 2% and the “Relative percentage of intact tracer and radiometabolites, Plasma 60 min p.i.” value ([4]; plasma, 60 min p.i. of [18F]1 or [18F]2, radio-HPLC) was 2%.

From paper PMC3856494, “Radiofluorination and biological evaluation of N-aryl-oxadiazolyl-propionamides as potential radioligands for PET imaging of cannabinoid CB2 receptors” (Organic and Medicinal Chemistry Letters, 2013)
